Source: the NIST ThermoML archive (doi:10.1016/j.tca.2015.06.017)

Experiment: xn = mol fraction of the nth substance listed
Details: Liquid, Vibrating tube method

CC(C)(C)Cl [2-chloro-2-methylpropane] + CCCCCCC
mass density [kg/m3]
Details | 303.15 K | 313.15 K
100 kPa, x2 = 0.0554 | 818.78 | 806.66
100 kPa, x2 = 0.1017 | 809.14 | 797.28
100 kPa, x2 = 0.2004 | 789.72 | 778.36
100 kPa, x2 = 0.3016 | 771.27 | 760.35
100 kPa, x2 = 0.4097 | 753.07 | 742.58
100 kPa, x2 = 0.498 | 739.29 | 729.11
100 kPa, x2 = 0.5983 | 724.71 | 714.88
100 kPa, x2 = 0.7017 | 710.79 | 701.3
100 kPa, x2 = 0.7995 | 698.55 | 689.36
100 kPa, x2 = 0.9032 | 686.4 | 677.52
100 kPa, x2 = 0.9482 | 681.35 | 672.6
2000 kPa, x2 = 0.0554 | 821.47 | 809.52
2000 kPa, x2 = 0.1017 | 811.82 | 800.05
2000 kPa, x2 = 0.2004 | 792.22 | 781
2000 kPa, x2 = 0.3016 | 773.66 | 763.03
2000 kPa, x2 = 0.4097 | 755.51 | 745.07
2000 kPa, x2 = 0.498 | 741.69 | 731.68
2000 kPa, x2 = 0.5983 | 727.08 | 717.4
2000 kPa, x2 = 0.7017 | 713.01 | 703.64
2000 kPa, x2 = 0.7995 | 700.74 | 691.69
2000 kPa, x2 = 0.9032 | 688.51 | 679.76
2000 kPa, x2 = 0.9482 | 683.42 | 674.8
5000 kPa, x2 = 0.0554 | 825.59 | 813.98
5000 kPa, x2 = 0.1017 | 815.8 | 804.42
5000 kPa, x2 = 0.2004 | 796.16 | 785.28
5000 kPa, x2 = 0.3016 | 777.4 | 767.03
5000 kPa, x2 = 0.4097 | 759.02 | 749.04
5000 kPa, x2 = 0.498 | 745.08 | 735.25
5000 kPa, x2 = 0.5983 | 730.47 | 720.98
5000 kPa, x2 = 0.7017 | 716.37 | 707.1
5000 kPa, x2 = 0.7995 | 703.86 | 695.02
5000 kPa, x2 = 0.9032 | 691.56 | 682.92
5000 kPa, x2 = 0.9482 | 686.48 | 677.95
7000 kPa, x2 = 0.0554 | 828.15 | 816.75
7000 kPa, x2 = 0.1017 | 818.38 | 807.19
7000 kPa, x2 = 0.2004 | 798.56 | 787.92
7000 kPa, x2 = 0.3016 | 779.88 | 769.57
7000 kPa, x2 = 0.4097 | 761.39 | 751.4
7000 kPa, x2 = 0.498 | 747.28 | 737.68
7000 kPa, x2 = 0.5983 | 732.58 | 723.34
7000 kPa, x2 = 0.7017 | 718.4 | 709.4
7000 kPa, x2 = 0.7995 | 705.86 | 697.26
7000 kPa, x2 = 0.9032 | 693.5 | 685.15
7000 kPa, x2 = 0.9482 | 688.38 | 680.11
10000 kPa, x2 = 0.0554 | 832 | 820.74
10000 kPa, x2 = 0.1017 | 822.04 | 811.13
10000 kPa, x2 = 0.2004 | 802.32 | 791.72
10000 kPa, x2 = 0.3016 | 783.29 | 773.41
10000 kPa, x2 = 0.4097 | 764.7 | 754.97
10000 kPa, x2 = 0.498 | 750.6 | 741.18
10000 kPa, x2 = 0.5983 | 735.66 | 726.57
10000 kPa, x2 = 0.7017 | 721.43 | 712.75
10000 kPa, x2 = 0.7995 | 708.91 | 700.32
10000 kPa, x2 = 0.9032 | 696.4 | 688.14
10000 kPa, x2 = 0.9482 | 691.28 | 683.1
20000 kPa, x2 = 0.0554 | 843.57 | 833.07
20000 kPa, x2 = 0.1017 | 833.51 | 823.38
20000 kPa, x2 = 0.2004 | 813.29 | 803.53
20000 kPa, x2 = 0.3016 | 793.94 | 784.77
20000 kPa, x2 = 0.4097 | 774.96 | 766.04
20000 kPa, x2 = 0.498 | 760.6 | –
20000 kPa, x2 = 0.5983 | 745.27 | –
20000 kPa, x2 = 0.7017 | 730.77 | –
20000 kPa, x2 = 0.7995 | 717.92 | –
20000 kPa, x2 = 0.9032 | 705.2 | –
20000 kPa, x2 = 0.9482 | 699.94 | –
30000 kPa, x2 = 0.0554 | 853.99 | –
30000 kPa, x2 = 0.1017 | 843.73 | –
30000 kPa, x2 = 0.2004 | 823.05 | –
30000 kPa, x2 = 0.3016 | 803.47 | –
30000 kPa, x2 = 0.4097 | 784.21 | –
30000 kPa, x2 = 0.498 | 769.56 | –
30000 kPa, x2 = 0.5983 | 753.98 | –
30000 kPa, x2 = 0.7017 | 739.18 | –
30000 kPa, x2 = 0.7995 | 726.07 | –
30000 kPa, x2 = 0.9032 | 713.06 | –
30000 kPa, x2 = 0.9482 | 707.83 | –
40000 kPa, x2 = 0.0554 | 863.35 | –
40000 kPa, x2 = 0.1017 | 852.88 | –
40000 kPa, x2 = 0.2004 | 832.1 | –
40000 kPa, x2 = 0.3016 | 812.13 | –
40000 kPa, x2 = 0.4097 | 792.62 | –
40000 kPa, x2 = 0.498 | 777.76 | –
40000 kPa, x2 = 0.5983 | 761.89 | –
40000 kPa, x2 = 0.7017 | 746.9 | –
40000 kPa, x2 = 0.7995 | 733.47 | –
40000 kPa, x2 = 0.9032 | 720.32 | –
40000 kPa, x2 = 0.9482 | 714.92 | –
50000 kPa, x2 = 0.0554 | 871.81 | –
50000 kPa, x2 = 0.1017 | 861.28 | –
50000 kPa, x2 = 0.2004 | 840.18 | –
50000 kPa, x2 = 0.3016 | 820.14 | –
50000 kPa, x2 = 0.4097 | 800.42 | –
50000 kPa, x2 = 0.498 | 785.33 | –
50000 kPa, x2 = 0.5983 | 769.3 | –
50000 kPa, x2 = 0.7017 | 753.99 | –
50000 kPa, x2 = 0.7995 | 740.47 | –
50000 kPa, x2 = 0.9032 | 727.09 | –
50000 kPa, x2 = 0.9482 | 721.65 | –
60000 kPa, x2 = 0.0554 | 879.84 | –
60000 kPa, x2 = 0.1017 | 869.24 | –
60000 kPa, x2 = 0.2004 | 847.92 | –
60000 kPa, x2 = 0.3016 | 827.68 | –
60000 kPa, x2 = 0.4097 | 807.57 | –
60000 kPa, x2 = 0.498 | 792.31 | –
60000 kPa, x2 = 0.5983 | 776.11 | –
60000 kPa, x2 = 0.7017 | 760.58 | –
60000 kPa, x2 = 0.7995 | 746.99 | –
60000 kPa, x2 = 0.9032 | 733.41 | –
60000 kPa, x2 = 0.9482 | 727.85 | –
65000 kPa, x2 = 0.0554 | 883.64 | –
65000 kPa, x2 = 0.1017 | 872.96 | –
65000 kPa, x2 = 0.2004 | 851.56 | –
65000 kPa, x2 = 0.3016 | 831.16 | –
65000 kPa, x2 = 0.4097 | 810.96 | –
65000 kPa, x2 = 0.498 | 795.68 | –
65000 kPa, x2 = 0.5983 | 779.38 | –
65000 kPa, x2 = 0.7017 | 763.77 | –
65000 kPa, x2 = 0.7995 | 749.98 | –
65000 kPa, x2 = 0.9032 | 736.38 | –
65000 kPa, x2 = 0.9482 | 730.82 | –
